Patent US20240390340A1 (INCYTE CORPORATION, priority 2023, published 2024)
Read-outs that look alike come from different tables or passages of the source.

What was measured:
[1] = test system: Caco-2 cells; assay: Caco2 assay (Papp A-B); assay type: in vitro ADME; details: test compound 50 μM, 120 min, 37° C.
Method in brief: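 Caco-2 monolayers grown 22–25 days on Transwells (TEER 300 Ω·cm^2) were dosed apically with 50 μM compound in HBSS; basolateral receiver held HBSS with 4% BSA. Incubation 120 min at 37° C, 5% CO2; donor and receiver samples quantified by LCMS and Papp A-B calculated from receiver-side cumulative flux slope.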

[2] = biological target: KRAS G12D (Homo sapiens, UniProt P01116, G12D); assay: GDP-GTP exchange assay (bodipy-GDP/GppNHp, SOS1), KRAS G12D; assay type: biochemical
KRAS G12D, sequence (P01116 1-188 isoform P01116-2 G12D): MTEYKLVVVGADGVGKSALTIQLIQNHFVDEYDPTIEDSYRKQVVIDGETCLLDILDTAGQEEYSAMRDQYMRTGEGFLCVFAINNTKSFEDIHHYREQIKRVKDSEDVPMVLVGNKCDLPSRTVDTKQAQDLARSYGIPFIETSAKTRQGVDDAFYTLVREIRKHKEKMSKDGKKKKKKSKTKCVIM

[3] = biological target: KRAS G12V (Homo sapiens, UniProt P01116, G12V); assay: GDP-GTP exchange assay (bodipy-GDP/GppNHp, SOS1), KRAS G12V; assay type: biochemical
KRAS G12V, sequence (P01116 1-188 isoform P01116-2 G12V): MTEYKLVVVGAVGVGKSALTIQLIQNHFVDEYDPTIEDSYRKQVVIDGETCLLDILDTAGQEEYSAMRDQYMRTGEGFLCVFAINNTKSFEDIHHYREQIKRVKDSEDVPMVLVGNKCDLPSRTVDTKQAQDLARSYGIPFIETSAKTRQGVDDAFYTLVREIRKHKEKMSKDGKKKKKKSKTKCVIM

[4] = Table H, column G12D, for compounds isolated as several atropisomers/diastereoisomers the value for the most potent isomer is quoted, read-out: KRAS G12D exchange assay IC50
[5] = Table H, column G12V, for compounds isolated as several atropisomers/diastereoisomers the value for the most potent isomer is quoted, read-out: KRAS G12V exchange assay IC50

Caco-2 [1]	IC50 [2, 4] [nM]	IC50 [3, 5] [nM]	IC50 ([2]; bodipy-loaded KRAS G12D 2.5 nM, 4 h pre-incubation, value for the most potent isomer quoted for certain compounds, read-out: G12D (KRAS G12D exchange assay IC50)) [nM]	IC50 ([3]; KRAS G12V mutant, value for the most potent isomer quoted for certain compounds, read-out: G12V (KRAS G12V exchange assay IC50)) [nM]	Structure (SMILES)
+ (a Caco-2 value of ≤0.5)	≤ 100	≤ 100			Cc1csnc1CO[C@H]1C[C@H](c2cc3c(-c4ccc(C(C)(C)O)nc4)nc4c(F)c(-c5cccc(Cl)c5Cl)c(CCC#N)cc4c3n2[C@H]2[C@H]3CN[C@@H]2C3)N(C(=O)C2CC2)C1 [Example 25]
++ (a Caco-2 value of >0.5 but ≤1)	≤ 100	≤ 100			Cc1cc(F)cc(O[C@H]2C[C@H](c3cc4c([C@@H](C)O)nc5c(F)c(-c6cccc(Cl)c6Cl)c(CCC#N)cc5c4n3[C@H]3[C@H]4CN[C@@H]3C4)N(C(=O)C3CC3)C2)n1 [Example 62, 3-(1-((1R,4R,5S)-2-Azabicyclo[2.1.1]hexan-5-yl)-2-((2R,4S)-1-(cyclopropanecarbonyl)-4-((4-fluoro-6-methylpyridin-2-yl)oxy)pyrrolidin-2-yl)-7-(2,3-dichlorophenyl)-6-fluoro-4-((R)-1-hydroxyethyl)-1H-pyrrolo[3,2-c]quinolin-8-yl)propanenitrile]
+++ (a Caco-2 value of >1)	≤ 100	≤ 100			COc1ncccc1O[C@H]1C[C@H](c2cc3c(C)nc4c(F)c(-c5cccc(Cl)c5Cl)c(CCC#N)cc4c3n2[C@H]2[C@H]3CN[C@@H]2C3)N(C(=O)C2CC2)[C@@H]1C [Example 49, 3-(1-((1R,4R,5S)-2-Azabicyclo[2.1.1]hexan-5-yl)-2-((2R,4S,5R)-1-(cyclopropanecarbonyl)-4-((2-methoxypyridin-3-yl)oxy)-5-methylpyrrolidin-2-yl)-7-(2,3-dichlorophenyl)-6-fluoro-4-methyl-1H-pyrrolo[3,2-c]quinolin-8-yl)propanenitrile]
+ (a Caco-2 value of ≤0.5)	≤ 100	≤ 100			COc1nccc(O[C@H]2C[C@H](c3cc4c(C)nc5c(F)c(-c6cccc(Cl)c6Cl)c(CCC#N)cc5c4n3[C@H]3[C@H]4CN[C@@H]3C4)N(C(=O)C3CC3)C2)n1 [Example 42, 3-(1-((1R,4R,5S)-2-Azabicyclo[2.1.1]hexan-5-yl)-2-((2R,4S)-1-(cyclopropanecarbonyl)-4-((2-methoxypyrimidin-4-yl)oxy)pyrrolidin-2-yl)-7-(2,3-dichlorophenyl)-6-fluoro-4-methyl-1H-pyrrolo[3,2-c]quinolin-8-yl)propanenitrile]
+ (a Caco-2 value of ≤0.5)	≤ 100	≤ 100			Cc1nc2c(F)c(-c3cccc(Cl)c3Cl)c(CCC#N)cc2c2c1cc([C@H]1C[C@H](OCc3ccnn3C(F)F)CN1C(=O)C1CC1)n2[C@H]1[C@H]2CN[C@@H]1C2 [Example 8]
+ (a Caco-2 value of ≤0.5)	≤ 100	≤ 100			Cc1nc2c(F)c(-c3cccc(Cl)c3Cl)c(CCC#N)cc2c2c1cc([C@H]1C[C@H](OCc3cnsn3)CN1C(=O)C1CC1)n2[C@H]1[C@H]2CN[C@@H]1C2 [Example 13]
+ (a Caco-2 value of ≤0.5)	≤ 100	≤ 100			Cc1nc2c(F)c(-c3cccc(Cl)c3Cl)c(CCC#N)cc2c2c1cc([C@H]1C[C@H](n3nnc(N4CCCC4)n3)CN1C(=O)C1CC1)n2[C@H]1[C@H]2CN[C@@H]1C2 [Example 75, 3-(1-((1R,4R,5S)-2-Azabicyclo[2.1.1]hexan-5-yl)-2-((2R,4S)-1-(cyclopropanecarbonyl)-4-(5-(pyrrolidin-1-yl)-2H-tetrazol-2-yl)pyrrolidin-2-yl)-7-(2,3-dichlorophenyl)-6-fluoro-4-methyl-1H-pyrrolo[3,2-c]quinolin-8-yl)propanenitrile]
+ (a Caco-2 value of ≤0.5)	≤ 100	≤ 100			COc1cc(O[C@H]2C[C@H](c3cc4c([C@@H](C)O)nc5c(F)c(-c6cccc(Cl)c6Cl)c(CCC#N)cc5c4n3[C@H]3[C@H]4CN[C@@H]3C4)N(C(=O)C3CC3)[C@@H]2C)c(F)cn1 [Example 51, 3-(1-((1R,4R,5S)-2-Azabicyclo[2.1.1]hexan-5-yl)-2-((2R,4S,5R)-1-(cyclopropanecarbonyl)-4-((5-fluoro-2-methoxypyridin-4-yl)oxy)-5-methylpyrrolidin-2-yl)-7-(2,3-dichlorophenyl)-6-fluoro-4-((R)-1-hydroxyethyl)-1H-pyrrolo[3,2-c]quinolin-8-yl)propanenitrile]
+ (a Caco-2 value of ≤0.5)	≤ 100	≤ 100			Cc1nc2c(F)c(-c3cccc(Cl)c3Cl)c(CCC#N)cc2c2c1cc([C@H]1C[C@H](Oc3cccc(C#N)c3)CN1C(=O)C1CC1)n2[C@H]1[C@H]2CN[C@@H]1C2 [Example 45, 3-(((3S,5R)-5-(1-((1R,4R,5S)-2-Azabicyclo[2.1.1]hexan-5-yl)-8-(2-cyanoethyl)-7-(2,3-dichlorophenyl)-6-fluoro-4-methyl-1H-pyrrolo[3,2-c]quinolin-2-yl)-1-(cyclopropanecarbonyl)pyrrolidin-3-yl)oxy)benzonitrile]
+ (a Caco-2 value of ≤0.5)	≤ 100	≤ 100			Cc1nc2c(F)c(-c3cccc(Cl)c3Cl)c(CCC#N)cc2c2c1cc([C@H]1C[C@H](OC3CCC(C#N)C3)CN1C(=O)C1CC1)n2[C@H]1[C@H]2CN[C@@H]1C2 (stereo partly drawn) [Example 24]
+++ (a Caco-2 value of >1)			≤ 100	≤ 100	Cc1nc2c(F)c(-c3cccc(Cl)c3Cl)c(CCC#N)cc2c2c1cc([C@H]1C[C@](C)(OCc3ccccc3)CN1C(=O)C1CC1)n2[C@H]1[C@H]2CN[C@@H]1C2 [Example 81, 3-(2-((2R,4S)-4-(Benzyloxy)-1-(cyclopropanecarbonyl)-4-methylpyrrolidin-2-yl)-1-((1R,4R,5S)-2-azabicyclo[2.1.1]hexan-5-yl)-7-(2,3-dichlorophenyl)-6-fluoro-4-methyl-1H-pyrrolo[3,2-c]quinolin-8-yl)propanenitrile]
++ (a Caco-2 value of >0.5 but ≤1)	≤ 100	≤ 100			CC(O)c1nc2c(F)c(-c3cccc(Cl)c3Cl)c(CCC#N)cc2c2c1cc([C@H]1C[C@H](OCc3ccc(F)cc3C#N)CN1C(=O)C1(C)CC1)n2[C@H]1[C@H]2CN[C@@H]1C2 (stereo partly drawn) [Example 35, 2-((((3S,5R)-5-(1-((1R,4R,5S)-2-Azabicyclo[2.1.1]hexan-5-yl)-8-(2-cyanoethyl)-7-(2,3-dichlorophenyl)-6-fluoro-4-(1-hydroxyethyl)-1H-pyrrolo[3,2-c]quinolin-2-yl)-1-(1-methylcyclopropane-1-carbonyl)pyrrolidin-3-yl)oxy)methyl)-5-fluorobenzonitrile]
+ (a Caco-2 value of ≤0.5)	≤ 100	≤ 100			Cc1ccccc1CO[C@H]1C[C@H](c2cc3c(C)nc4c(F)c(-c5cccc(Cl)c5Cl)c(CCC#N)cc4c3n2[C@H]2[C@H]3CN[C@@H]2C3)N(C(=O)C2CC2)C1 [Example 21]
+++ (a Caco-2 value of >1)	≤ 100	≤ 100			COc1cc(O[C@H]2C[C@H](c3cc4c(C(C)O)nc5c(F)c(-c6cccc(Cl)c6Cl)c(CCC#N)cc5c4n3[C@H]3[C@H]4CN[C@@H]3C4)N(C(=O)C3CC3)C2)ccn1 (stereo partly drawn) [Example 2, 3-(1-((1R,4R,5S)-2-Azabicyclo[2.1.1]hexan-5-yl)-2-((2R,4S)-1-(cyclopropanecarbonyl)-4-((2-methoxypyridin-4-yl)oxy)pyrrolidin-2-yl)-7-(2,3-dichlorophenyl)-6-fluoro-4-(1-hydroxyethyl)-1H-pyrrolo[3,2-c]quinolin-8-yl)propanenitrile]
++ (a Caco-2 value of >0.5 but ≤1)	≤ 100	≤ 100			COC1CCC(O[C@H]2C[C@H](c3cc4c(C)nc5c(F)c(-c6cccc(Cl)c6Cl)c(CCC#N)cc5c4n3[C@H]3[C@H]4CN[C@@H]3C4)N(C(=O)C3CC3)C2)C1 (stereo partly drawn) [Example 23]
++ (a Caco-2 value of >0.5 but ≤1)	≤ 100	≤ 100			COc1cc(O[C@H]2C[C@H](c3cc4c([C@@H](C)O)nc5c(F)c(-c6cccc(Cl)c6Cl)c(CCC#N)cc5c4n3[C@H]3[C@H]4CN[C@@H]3C4)N(C(=O)C3CC3)C2)ncn1 [Example 57, 3-(1-((1R,4R,5S)-2-Azabicyclo[2.1.1]hexan-5-yl)-2-((2R,4S)-1-(cyclopropanecarbonyl)-4-((6-methoxypyrimidin-4-yl)oxy)pyrrolidin-2-yl)-7-(2,3-dichlorophenyl)-6-fluoro-4-((R)-1-hydroxyethyl)-1H-pyrrolo[3,2-c]quinolin-8-yl)propanenitrile]
++ (a Caco-2 value of >0.5 but ≤1)	≤ 100	≤ 100			COc1cccc(F)c1CO[C@H]1C[C@H](c2cc3c(C)nc4c(F)c(-c5cccc(Cl)c5Cl)c(CCC#N)cc4c3n2[C@H]2[C@H]3CN[C@@H]2C3)N(C(=O)C2CC2)C1 [Example 16]
+++ (a Caco-2 value of >1)	≤ 100	≤ 100			Cc1nc2c(F)c(-c3cccc(Cl)c3Cl)c(CCC#N)cc2c2c1cc([C@H]1C[C@H](Oc3ncccc3F)CN1C(=O)C1CC1)n2[C@H]1[C@H]2CN[C@@H]1C2 [Example 58, 3-(1-((1R,4R,5S)-2-Azabicyclo[2.1.1]hexan-5-yl)-2-((2R,4S)-1-(cyclopropanecarbonyl)-4-((3-fluoropyridin-2-yl)oxy)pyrrolidin-2-yl)-7-(2,3-dichlorophenyl)-6-fluoro-4-methyl-1H-pyrrolo[3,2-c]quinolin-8-yl)propanenitrile]
+ (a Caco-2 value of ≤0.5)	≤ 100	≤ 100			CC(O)c1nc2c(F)c(-c3cccc(Cl)c3Cl)c(CCC#N)cc2c2c1cc([C@H]1C[C@H](OCc3c(F)cccc3F)CN1C(=O)C1CC1)n2[C@H]1[C@H]2CN[C@@H]1C2 (stereo partly drawn) [Example 34]
